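Assay format: 96-well plates, 48-hour exposure. TGI: concentration producing complete growth inhibition.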
Columns and labels:
Test in all cases: inhibition of tumour cell growth, NCI panel, 48 h
[1] = tested on: 786-0 renal
[2] = tested on: A498 renal
[3] = tested on: A549 NSCLC
[4] = tested on: BT-549 breast
[5] = tested on: CAKI-1 renal
[6] = tested on: CCRF-CEM leukemia
[7] = tested on: COLO 205 colon
[8] = tested on: DU-145 prostate
[9] = tested on: EKVX NSCLC
[10] = tested on: HCC-2998 colon
[11] = tested on: HCT-116 colon
[12] = tested on: HOP-62 NSCLC
[13] = tested on: HS 578T breast
[14] = tested on: HT29 colon
[15] = tested on: IGROV1 ovarian
[16] = tested on: K-562 leukemia
[17] = tested on: M14 melanoma
[18] = tested on: MALME-3M melanoma
[19] = tested on: MCF7 breast
[20] = tested on: MDA-MB-231 breast
[21] = tested on: MDA-MB-435
[22] = tested on: MDA-N
[23] = tested on: MOLT-4 leukemia
[24] = tested on: NCI-H226 lung
[25] = tested on: NCI-H23 lung
[26] = tested on: NCI-H522 lung
[27] = tested on: NCI/ADR-RES ovarian
[28] = tested on: OVCAR-3 ovarian
[29] = tested on: OVCAR-5 ovarian
[30] = tested on: OVCAR-8 ovarian
[31] = tested on: PC-3 prostate
[32] = tested on: RXF 393 renal
[33] = tested on: SF-268 CNS
[34] = tested on: SF-295 CNS
[35] = tested on: SF-539 CNS
[36] = tested on: SK-MEL-2 melanoma
[37] = tested on: SK-MEL-5 melanoma
[38] = tested on: SK-OV-3 ovarian
[39] = tested on: SN12C renal
[40] = tested on: SNB-75 CNS
[41] = tested on: T-47D breast
[42] = tested on: TK-10 renal
[43] = tested on: U251 CNS
[44] = tested on: UACC-257 melanoma
[45] = tested on: UACC-62 melanoma
[46] = tested on: ACHN renal
[47] = tested on: HCT-15 colon
[48] = tested on: KM12 colon
[49] = tested on: LOX IMVI melanoma
[50] = tested on: NCI-H460 lung
[51] = tested on: OVCAR-4 ovarian
[52] = tested on: RPMI-8226 leukemia
[53] = tested on: SK-MEL-28 melanoma
[54] = tested on: SNB-19 CNS
[55] = tested on: SW-620 colon
[56] = tested on: UO-31 renal

SMILES: Cc1n[nH]c(=O)n1N1C(=O)CCCC1=O
- TGI [1]: > 100 µM
- TGI [2]: > 100 µM
- TGI [3]: > 100 µM
- TGI [4]: > 100 µM
- TGI [5]: > 100 µM
- TGI [6]: > 100 µM
- TGI [7]: > 100 µM
- TGI [8]: > 100 µM
- TGI [9]: > 100 µM
- TGI [10]: > 100 µM
- TGI [11]: > 100 µM
- TGI [12]: > 100 µM
- TGI [13]: > 100 µM
- TGI [14]: > 100 µM
- TGI [15]: > 100 µM
- TGI [16]: > 100 µM
- TGI [17]: > 100 µM
- TGI [18]: > 100 µM
- TGI [19]: > 100 µM
- TGI [20]: > 100 µM
- TGI [21]: > 100 µM
- TGI [22]: > 100 µM
- TGI [23]: 62.8 µM
- TGI [24]: > 100 µM
- TGI [25]: > 100 µM
- TGI [26]: > 100 µM
- TGI [27]: > 100 µM
- TGI [28]: > 100 µM
- TGI [29]: > 100 µM
- TGI [30]: > 100 µM
- TGI [31]: > 100 µM
- TGI [32]: > 100 µM
- TGI [33]: > 100 µM
- TGI [34]: > 100 µM
- TGI [35]: > 100 µM
- TGI [36]: > 100 µM
- TGI [37]: > 100 µM
- TGI [38]: > 100 µM
- TGI [39]: > 100 µM
- TGI [40]: > 100 µM
- TGI [41]: > 100 µM
- TGI [42]: > 100 µM
- TGI [43]: > 100 µM
- TGI [44]: > 100 µM
- TGI [45]: > 100 µM

SMILES: Nc1n[n+](CC(=O)c2ccccc2)c2sc(-c3ccccc3)nn12
- TGI [1]: > 100 µM
- TGI [2]: > 100 µM
- TGI [3]: > 100 µM
- TGI [46]: > 100 µM
- TGI [4]: > 100 µM
- TGI [5]: > 100 µM
- TGI [6]: > 100 µM
- TGI [7]: > 100 µM
- TGI [8]: > 100 µM
- TGI [9]: > 100 µM
- TGI [11]: > 100 µM
- TGI [47]: > 100 µM
- TGI [12]: > 100 µM
- TGI [13]: > 100 µM
- TGI [14]: > 100 µM
- TGI [15]: > 100 µM
- TGI [16]: > 100 µM
- TGI [48]: > 100 µM
- TGI [49]: > 100 µM
- TGI [17]: > 100 µM
- TGI [18]: > 100 µM
- TGI [19]: > 100 µM
- TGI [20]: > 100 µM
- TGI [21]: > 100 µM
- TGI [22]: > 100 µM
- TGI [23]: > 100 µM
- TGI [24]: > 100 µM
- TGI [25]: > 100 µM
- TGI [50]: > 100 µM
- TGI [26]: > 100 µM
- TGI [27]: > 100 µM
- TGI [28]: > 100 µM
- TGI [51]: > 100 µM
- TGI [29]: > 100 µM
- TGI [30]: > 100 µM
- TGI [31]: > 100 µM
- TGI [52]: > 100 µM
- TGI [32]: > 100 µM
- TGI [33]: > 100 µM
- TGI [34]: > 100 µM
- TGI [35]: > 100 µM
- TGI [36]: > 100 µM
- TGI [53]: > 100 µM
- TGI [37]: > 100 µM
- TGI [38]: > 100 µM
- TGI [39]: > 100 µM
- TGI [54]: > 100 µM
- TGI [40]: > 100 µM
- TGI [55]: > 100 µM
- TGI [41]: > 100 µM
- TGI [42]: > 100 µM
- TGI [43]: > 100 µM
- TGI [44]: > 100 µM
- TGI [45]: 82.7 µM
- TGI [56]: > 100 µM
